According to ChEMBL document CHEMBL4177665, “Inhibitory effect of moschamine isolated from Carthamus tinctorius on LPS-induced inflammatory mediators via AP-1 and STAT1/3 inactivation in RAW 264.7 macrophages” (Bioorg Med Chem Lett, 2017):
Calls of active or inactive are those of the source. The calls are words filed in the database; no cut-off is given here.

How the values were obtained:
RAW264.7 [1] = assay: Antiinflammatory activity in mouse RAW264.7 cells assessed as inhibition of LPS-induced PGE2 production pretreated for 1 hr followed by LPS addition measured after 24 hrs; assay type: functional, cell-based
RAW264.7 [2] = assay: Antiinflammatory activity in mouse RAW264.7 cells assessed as inhibition of LPS-induced nitric oxide production measured after 24 hrs by Griess assay; assay type: functional, cell-based; conditions: RAW264.7, 24 h
RAW264.7 [3] = assay: Cytotoxicity against mouse RAW264.7 cells assessed as reduction in cell viability up to 200 uM measured after 24 hrs in presence of LPS by MTT assay; assay type: cell-based; conditions: raw264.7, 24 h
RAW264.7 [4] = assay: Cytotoxicity against mouse RAW264.7 cells assessed as reduction in cell viability up to 200 uM measured after 24 hrs in absence of LPS by MTT assay; assay type: cell-based; conditions: raw264.7, 24 h
[5] = target: Tyrosine-protein kinase JAK1 (Mus musculus) (UniProt P52332); assay: Inhibition of JAK1 in LPS-stimulated mouse RAW264.7 cells assessed as reduction in STAT3 phosphorylation at […] residue pretreated for 1 hr followed by LPS-stimulation by Western blot analysis; assay type: cell-based
Tyrosine-protein kinase JAK1 (Mus musculus), sequence (P52332 whole entry): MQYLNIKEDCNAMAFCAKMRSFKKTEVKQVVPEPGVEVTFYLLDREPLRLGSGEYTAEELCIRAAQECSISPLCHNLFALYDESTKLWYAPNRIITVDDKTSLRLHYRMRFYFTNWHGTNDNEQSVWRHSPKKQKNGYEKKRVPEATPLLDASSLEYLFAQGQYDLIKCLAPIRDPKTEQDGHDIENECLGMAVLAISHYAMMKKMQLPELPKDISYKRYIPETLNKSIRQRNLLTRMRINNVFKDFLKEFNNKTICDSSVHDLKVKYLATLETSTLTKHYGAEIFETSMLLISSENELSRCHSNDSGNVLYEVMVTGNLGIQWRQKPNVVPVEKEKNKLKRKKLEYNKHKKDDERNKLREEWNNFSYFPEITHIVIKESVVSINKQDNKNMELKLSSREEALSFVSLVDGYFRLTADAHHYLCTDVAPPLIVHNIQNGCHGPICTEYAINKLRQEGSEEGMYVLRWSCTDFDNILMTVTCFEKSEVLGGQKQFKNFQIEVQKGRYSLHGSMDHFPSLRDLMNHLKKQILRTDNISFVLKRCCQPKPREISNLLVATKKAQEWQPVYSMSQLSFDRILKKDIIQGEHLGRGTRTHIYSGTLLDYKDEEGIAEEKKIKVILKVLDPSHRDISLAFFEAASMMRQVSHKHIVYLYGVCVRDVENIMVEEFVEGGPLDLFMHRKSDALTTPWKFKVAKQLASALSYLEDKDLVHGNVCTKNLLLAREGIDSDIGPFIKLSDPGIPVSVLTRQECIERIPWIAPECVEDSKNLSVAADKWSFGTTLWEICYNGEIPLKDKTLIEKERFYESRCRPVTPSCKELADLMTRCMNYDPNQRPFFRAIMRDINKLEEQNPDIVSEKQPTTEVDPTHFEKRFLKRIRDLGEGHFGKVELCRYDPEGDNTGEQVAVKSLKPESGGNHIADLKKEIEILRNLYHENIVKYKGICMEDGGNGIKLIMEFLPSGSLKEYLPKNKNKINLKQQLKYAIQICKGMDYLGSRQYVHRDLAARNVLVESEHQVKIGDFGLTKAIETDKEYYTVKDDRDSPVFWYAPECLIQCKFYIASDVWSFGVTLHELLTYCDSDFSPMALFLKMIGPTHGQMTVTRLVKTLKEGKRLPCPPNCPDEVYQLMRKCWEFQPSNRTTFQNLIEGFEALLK

RAW264.7 [6] = assay: Antiinflammatory activity in mouse RAW264.7 cells assessed as inhibition of LPS-stimulated iNOS mRNA expression at 50 uM measured up to 12 hrs by SYBR green dye based RT-PCR analysis; assay type: functional, cell-based
RAW264.7 [7] = assay: Antiinflammatory activity in mouse RAW264.7 cells assessed as inhibition of LPS-stimulated iNOS expression at 12.5 to 50 uM pretreated for 1 hr followed by LPS-stimulation measured after 12 hrs by Western blot analysis; assay type: functional, cell-based
RAW264.7 [8] = assay: Antiinflammatory activity in mouse RAW264.7 cells assessed as inhibition of LPS-stimulated COX2 mRNA expression at 50 uM measured up to 12 hrs by SYBR green dye based RT-PCR analysis; assay type: functional, cell-based
RAW264.7 [9] = assay: Antiinflammatory activity in mouse RAW264.7 cells assessed as inhibition of LPS-induced nitric oxide production pretreated for 1 hr followed by LPS stimulation measured after 24 hrs by Griess assay; assay type: functional, cell-based
RAW264.7 [10] = assay: Antiinflammatory activity in mouse RAW264.7 cells assessed as inhibition of LPS-stimulated COX2 expression at 12.5 to 50 uM pretreated for 1 hr followed by LPS-stimulation measured after 12 hrs by Western blot analysis; assay type: functional, cell-based
RAW264.7 [11] = assay: Antiinflammatory activity in mouse RAW264.7 cells assessed as inhibition of LPS-stimulated mPGES1 expression at 12.5 to 50 uM pretreated for 1 hr followed by LPS-stimulation measured after 12 hrs by Western blot analysis; assay type: functional, cell-based
RAW264.7 [12] = assay: Antiinflammatory activity in mouse RAW264.7 cells assessed as inhibition of LPS-stimulated mPGES1 mRNA expression at 50 uM measured up to 12 hrs by SYBR green dye based RT-PCR analysis; assay type: functional, cell-based
RAW264.7 [13] = assay: Antiinflammatory activity in mouse RAW264.7 cells assessed as inhibition of LPS-stimulated IL-6 production pretreated for 1 hr followed by LPS addition measured after 24 hrs by enzyme immunoassay; assay type: functional, cell-based
RAW264.7 [14] = assay: Antiinflammatory activity in mouse RAW264.7 cells assessed as inhibition of LPS-stimulated IL1beta production in mouse RAW264.7 cells pretreated for 1 hr followed by LPS addition measured after 24 hrs by enzyme immunoassay; assay type: functional, cell-based
RAW264.7 [15] = assay: Antiinflammatory activity in mouse RAW264.7 cells assessed as inhibition of LPS-stimulated IL-6 production in mouse RAW264.7 cells at 50 uM pretreated for 1 hr followed by LPS addition measured after 24 hrs by enzyme immunoassay relative to control; assay type: functional
RAW264.7 [16] = assay: Antiinflammatory activity in mouse RAW264.7 cells assessed as inhibition of LPS-stimulated IL1beta production in mouse RAW264.7 cells at 50 uM pretreated for 1 hr followed by LPS addition measured after 24 hrs by enzyme immunoassay relative to control; assay type: functional
RAW264.7 [17] = assay: Antiinflammatory activity in mouse RAW264.7 cells assessed as inhibition of LPS-stimulated IL-6 mRNA expression at 50 uM measured up to 6 hrs by SYBR green dye based RT-PCR analysis; assay type: functional, cell-based
RAW264.7 [18] = assay: Antiinflammatory activity in mouse RAW264.7 cells assessed as inhibition of LPS-stimulated IL1beta mRNA expression at 50 uM measured up to 6 hrs by SYBR green dye based RT-PCR analysis; assay type: functional, cell-based
[19] = target: Transcription factor Jun (Homo sapiens) (UniProt P05412); assay: Inhibition of AP1 (unknown origin) expressed in LPS-stimulated mouse RAW264.7 cells at 12.5 to 50 uM pretreated for 1 hr followed by LPS-stimulation measured after 18 hrs by luciferase reporter gene assay; assay type: cell-based
Transcription factor Jun (Homo sapiens), sequence (P05412 whole entry): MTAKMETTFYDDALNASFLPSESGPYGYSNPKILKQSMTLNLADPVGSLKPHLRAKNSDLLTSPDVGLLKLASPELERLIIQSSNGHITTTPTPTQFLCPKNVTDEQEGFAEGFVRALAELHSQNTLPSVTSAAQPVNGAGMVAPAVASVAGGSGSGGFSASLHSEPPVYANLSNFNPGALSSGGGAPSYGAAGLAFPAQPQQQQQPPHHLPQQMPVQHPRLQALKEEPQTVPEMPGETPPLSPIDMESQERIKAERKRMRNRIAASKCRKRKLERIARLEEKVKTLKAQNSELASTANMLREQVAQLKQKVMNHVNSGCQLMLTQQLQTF

RAW264.7 [20] = assay: Inhibition of NFKappaB (unknown origin) expressed in LPS-stimulated mouse RAW264.7 cells by luciferase reporter gene assay; assay type: cell-based; conditions: Homo sapiens
[21] = target: Protein c-Fos (Mus musculus) (UniProt P01101); assay: Inhibition of LPS-induced c-FOS phosphorylation in mouse RAW264.7 cells at 50 uM pretreated for 1 hr followed by LPS-stimulation measured after 15 mins by Western blot analysis; assay type: cell-based
Protein c-Fos (Mus musculus), sequence (P01101 whole entry): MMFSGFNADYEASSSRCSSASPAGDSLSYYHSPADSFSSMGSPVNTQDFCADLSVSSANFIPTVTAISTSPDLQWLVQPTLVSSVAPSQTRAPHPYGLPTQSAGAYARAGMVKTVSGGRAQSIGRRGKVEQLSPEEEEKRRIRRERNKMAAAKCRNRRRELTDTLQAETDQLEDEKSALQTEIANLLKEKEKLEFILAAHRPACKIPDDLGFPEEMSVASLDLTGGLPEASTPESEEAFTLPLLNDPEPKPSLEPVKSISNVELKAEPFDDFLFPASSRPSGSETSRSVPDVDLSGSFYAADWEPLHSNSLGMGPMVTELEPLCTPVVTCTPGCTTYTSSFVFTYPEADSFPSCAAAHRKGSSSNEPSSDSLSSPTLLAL

RAW264.7 [22] = assay: Inhibition of LPS-induced c-FOS expression in mouse RAW264.7 cells at 50 uM pretreated for 1 hr followed by LPS-stimulation measured after 15 mins by Western blot analysis; assay type: functional, cell-based
[23] = target: Transcription factor Jun (Mus musculus) (UniProt P05627); assay: Inhibition of LPS-induced c-JUN phosphorylation in mouse RAW264.7 cells at 50 uM pretreated for 1 hr followed by LPS-stimulation measured up to 30 mins by Western blot analysis; assay type: cell-based
Transcription factor Jun (Mus musculus), sequence (P05627 whole entry): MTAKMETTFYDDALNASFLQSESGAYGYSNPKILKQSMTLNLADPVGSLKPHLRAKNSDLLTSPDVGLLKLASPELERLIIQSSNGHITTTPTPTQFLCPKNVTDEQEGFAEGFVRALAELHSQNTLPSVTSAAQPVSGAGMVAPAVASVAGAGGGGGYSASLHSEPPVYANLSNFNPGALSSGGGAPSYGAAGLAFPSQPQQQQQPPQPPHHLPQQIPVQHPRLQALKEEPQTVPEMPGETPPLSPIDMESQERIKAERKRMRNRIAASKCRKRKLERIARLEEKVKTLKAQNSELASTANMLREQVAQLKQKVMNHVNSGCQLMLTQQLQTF

RAW264.7 [24] = assay: Inhibition of LPS-induced c-JUN expression in mouse RAW264.7 cells at 50 uM pretreated for 1 hr followed by LPS-stimulation measured up to 30 mins by Western blot analysis; assay type: functional, cell-based
[25] = target: Tyrosine-protein kinase JAK1 (Mus musculus) (UniProt P52332); assay: Inhibition of JAK1 in LPS-stimulated mouse RAW264.7 cells assessed as reduction in STAT1 phosphorylation at S727 residue pretreated for 1 hr followed by LPS-stimulation by Western blot analysis; assay type: cell-based
[26] = target: Tyrosine-protein kinase JAK1 (Mus musculus) (UniProt P52332); assay: Inhibition of JAK1 in LPS-stimulated mouse RAW264.7 cells assessed as reduction in STAT1 phosphorylation at Y701 residue pretreated for 1 hr followed by LPS-stimulation by Western blot analysis; assay type: cell-based
[27] = target: MAP kinase p38 (Mus musculus) (UniProt P47811+O08911+Q9WUI1+Q9Z1B7); assay: Inhibition of LPS-induced p38 phosphorylation in mouse RAW264.7 cells at 50 uM pretreated for 1 hr followed by LPS-stimulation measured up to 30 mins by Western blot analysis; assay type: cell-based
RAW264.7 [28] = assay: Inhibition of LPS-induced ERK phosphorylation in mouse RAW264.7 cells at 50 uM pretreated for 1 hr followed by LPS-stimulation measured up to 30 mins by Western blot analysis; assay type: cell-based
RAW264.7 [29] = assay: Inhibition of LPS-induced JNK phosphorylation in mouse RAW264.7 cells at 50 uM pretreated for 1 hr followed by LPS-stimulation measured up to 30 mins by Western blot analysis; assay type: cell-based

Question: What does the source list for `COc1cc(/C=C/C(=O)NCCc2c[nH]c3ccc(O)c(-c4c(O)ccc5[nH]cc(CCNC(=O)/C=C/c6ccc(O)cc6)c45)c23)ccc1O`?
Answer: IC50 (RAW264.7 [1]): > 100 µM; IC50 (RAW264.7 [2]): > 200 µM; Activity (RAW264.7 [3]): Non-Toxic; Activity (RAW264.7 [4]): Non-Toxic

Question: Which IC50 (RAW264.7 [1]) does the source give for `CC(=O)OC[C@H]1O[C@@H](O[C@H](C)[C@H]2C[C@H](O)[C@H]3[C@@H]4CCC5=CC(=O)CC[C@]5(C)[C@H]4CC[C@@]32C)[C@H](O)[C@@H](O)[C@@H]1O[C@@H]1O[C@H](CO)[C@@H](O)[C@H](O)[C@H]1O` here?
Answer: > 100 µM

Question: And the IC50 (RAW264.7 [2])?
Answer: > 200 µM

Question: What about the Activity (RAW264.7 [3]) of the same compound?
Answer: Non-Toxic

Question: And the Activity (RAW264.7 [4])?
Answer: Non-Toxic

Question: How did the IC50 (RAW264.7 [1]) turn out when `COc1cc(/C=C/C(=O)NCCc2c[nH]c3ccc(O)c(-c4c(O)ccc5[nH]cc(CCNC(=O)/C=C/c6ccc(O)c(OC)c6)c45)c23)ccc1O` was run?
Answer: > 100 µM

Question: And the IC50 (RAW264.7 [2])?
Answer: > 200 µM

Question: And the Activity (RAW264.7 [3])?
Answer: Non-Toxic

Question: What about the Activity (RAW264.7 [4]) of the same compound?
Answer: Non-Toxic

Question: Which results are given for `O=C(/C=C/c1ccc(O)cc1)NCCc1c[nH]c2ccc(O[C@@H]3O[C@H](CO)[C@@H](O)[C@H](O)[C@H]3O)cc12`?
Answer: IC50 (RAW264.7 [1]): 89.8 µM; IC50 (RAW264.7 [2]): 135 µM; Activity (RAW264.7 [3]): Non-Toxic; Activity (RAW264.7 [4]): Non-Toxic

Question: Which IC50 (RAW264.7 [1]) does the source give for `COc1ccc(C[C@H]2COC(=O)[C@]2(O)Cc2ccc(O[C@@H]3O[C@H](CO)[C@@H](O)[C@H](O)[C@H]3O)c(OC)c2)cc1OC` here?
Answer: > 100 µM

Question: And the IC50 (RAW264.7 [2])?
Answer: > 200 µM

Question: And the Activity (RAW264.7 [3])?
Answer: Non-Toxic

Question: And the Activity (RAW264.7 [4])?
Answer: Non-Toxic

Question: What does the source list for `O=C(/C=C/c1ccc(O)cc1)NCCc1c[nH]c2ccc(O)c(-c3c(O)ccc4[nH]cc(CCNC(=O)/C=C/c5ccc(O)cc5)c34)c12`?
Answer: IC50 (RAW264.7 [1]): > 100 µM; IC50 (RAW264.7 [2]): > 200 µM; Activity (RAW264.7 [3]): Non-Toxic; Activity (RAW264.7 [4]): Non-Toxic

Question: Which results are given for `COc1cc(C[C@@H](CO)[C@H](CO)Cc2ccc(O)c(OC)c2)ccc1O` [(+)-SECOISOLARICIRESINOL]?
Answer: IC50 (RAW264.7 [1]): > 100 µM; IC50 (RAW264.7 [2]): > 200 µM; Activity (RAW264.7 [3]): Non-Toxic; Activity (RAW264.7 [4]): Non-Toxic

Question: For `CC(=N)NCCCC[C@H](N)C(=O)O` [L-NIL], which IC50 (RAW264.7 [2]) is on record?
Answer: 28.3 µM

Question: Which results are given for `COc1cc(/C=C/C(=O)NCCc2c[nH]c3ccc(O)cc23)ccc1O` [N-FERULOYL SEROTONIN]?
Answer: inhibition [5]: Dose-dependent effect; inhibition (RAW264.7 [6]): Active; inhibition (RAW264.7 [7]): Active; inhibition (RAW264.7 [8]): Active; IC50 (RAW264.7 [1]): 14.7 µM; inhibition (RAW264.7 [1]): Dose-dependent effect; IC50 (RAW264.7 [2]): 123 µM; Activity (RAW264.7 [3]): Non-Toxic; inhibition (RAW264.7 [9]): Dose-dependent effect; inhibition (RAW264.7 [10]): Active; inhibition (RAW264.7 [11]): Active; inhibition (RAW264.7 [12]): Active; inhibition (RAW264.7 [13]): Dose-dependent effect; inhibition (RAW264.7 [14]): Dose-dependent effect; inhibition at 50 µM (RAW264.7 [15]): 25.1%; inhibition at 50 µM (RAW264.7 [16]): 52.2%; inhibition (RAW264.7 [17]): Active; inhibition (RAW264.7 [18]): Active; inhibition [19]: Active; inhibition (RAW264.7 [20]): inactive; inhibition [21]: Active; inhibition (RAW264.7 [22]): Active; inhibition [23]: inactive; inhibition (RAW264.7 [24]): inactive; inhibition [25]: Dose-dependent effect; inhibition [26]: Dose-dependent effect; inhibition [27]: Active; inhibition (RAW264.7 [28]): Active; inhibition (RAW264.7 [29]): inactive; Activity (RAW264.7 [4]): Non-Toxic

Question: Which IC50 (RAW264.7 [1]) does the source give for `O=C(/C=C/c1ccc(O)cc1)NCCc1c[nH]c2ccc(O)cc12` [N-P-COUMAROYL SEROTONIN] here?
Answer: 43.2 µM

Question: And the IC50 (RAW264.7 [2])?
Answer: 164 µM

Question: And the Activity (RAW264.7 [3])?
Answer: Non-Toxic

Question: And the Activity (RAW264.7 [4])?
Answer: Non-Toxic
